According to ChEMBL document CHEMBL1152704, “Synthesis and structure-function analysis of Fe(II)-form-selective antibacterial inhibitors of Escherichia coli methionine aminopeptidase” (Bioorg Med Chem Lett, 2009):
≈ marks a conversion by molar mass, not a printed value.

Columns and labels:
[1] = Inhibition of ferrous-activated Escherichia coli MetAP
[2] = Inhibition of mangnese-activated Escherichia coli MetAP
[3] = Inhibition of cobalt-activated Escherichia coli MetAP
Escherichia coli = experiment: Antibacterial activity against Escherichia coli AS19; assay type: functional, organism-based

| SMILES | IC50 [1] | IC50 [2] | IC50 [3] | IC50 (Escherichia coli) | MIC (Escherichia coli) |
| --- | --- | --- | --- | --- | --- |
| Oc1ccc(-c2ncc(F)cn2)cc1O | 10.6 µM | > 100 µM | 52.6 µM | 206 µM | 80 µg/mL (≈ 388 µM) |
| Oc1ccc(-c2ccccn2)cc1O | 19.3 µM | > 100 µM | > 100 µM | 211 µM | 106 µg/mL (≈ 566 µM) |
| COC(=O)c1ncoc1-c1cccc(O)c1O | 14 µM | > 100 µM | > 100 µM | 120 µM | 99 µg/mL (≈ 421 µM) |
| COc1cnc(-c2cccc(O)c2O)o1 | 11.2 µM | > 100 µM | > 100 µM | 228 µM | 164 µg/mL (≈ 792 µM) |
| Oc1ccc(-c2ncccn2)cc1O | 25.5 µM | > 100 µM | > 100 µM | > 250 µM |  |
| O=C(NC1CCCC1)c1ncoc1-c1cccc(O)c1O | 11 µM | > 100 µM | > 100 µM | 165 µM | 199 µg/mL (≈ 690 µM) |

Second part, the compound after the results:

| IC50 [1] | IC50 [2] | IC50 [3] | IC50 (Escherichia coli) | MIC (Escherichia coli) | SMILES |
| --- | --- | --- | --- | --- | --- |
| 1 µM | 6.7 µM | 21.2 µM | 50.8 µM | 39 µg/mL (≈ 143 µM) | C=CCCNC(=O)c1ccc(-c2ccc(O)c(O)c2)o1 |
| 1.2 µM | 7.9 µM | 22.5 µM | 43.9 µM | 29 µg/mL (≈ 106 µM) | O=C(NC1CCC1)c1ccc(-c2ccc(O)c(O)c2)o1 |
| 13.4 µM | > 100 µM | > 100 µM | 97.2 µM | 99 µg/mL (≈ 361 µM) | C=CCCNC(=O)c1ncoc1-c1cccc(O)c1O |
| > 100 µM | > 100 µM | > 100 µM | > 250 µM |  | Cn1ccnc1-c1ccc(O)c(O)c1 |
| 0.9 µM | 11.8 µM | 30.1 µM | 23.4 µM | 19 µg/mL (≈ 66.1 µM) | O=C(NC1CCCC1)c1ccc(-c2ccc(O)c(O)c2)o1 |
| 14.8 µM | > 100 µM | > 100 µM | 55 µM | 26 µg/mL (≈ 100 µM) | O=C(NC1CC1)c1ccc(-c2ccc(O)c(O)c2)o1 |
| 16.1 µM | 19.5 µM | 24.6 µM | 97.7 µM | 79 µg/mL (≈ 296 µM) | Oc1ccc(-c2cn(Cc3ccccc3)nn2)cc1O |
